From US20040121489A1, “COX-2 mediated altered prostaglandin balance in diabetes complications” (priority 2002, published 2004)

How the values were obtained:
COX-2 = molecular target: T1, COX-2 (Mus musculus, UniProt Q05769); conditions: cited from Zhao et al., Mol. Carcinog. 1999; cited from earlier work
T1 construct: cyclooxygenase 2 and interleukin-1 alpha expression in SENCAR mouse epidermis
T1 sequence (Q05769 18-604): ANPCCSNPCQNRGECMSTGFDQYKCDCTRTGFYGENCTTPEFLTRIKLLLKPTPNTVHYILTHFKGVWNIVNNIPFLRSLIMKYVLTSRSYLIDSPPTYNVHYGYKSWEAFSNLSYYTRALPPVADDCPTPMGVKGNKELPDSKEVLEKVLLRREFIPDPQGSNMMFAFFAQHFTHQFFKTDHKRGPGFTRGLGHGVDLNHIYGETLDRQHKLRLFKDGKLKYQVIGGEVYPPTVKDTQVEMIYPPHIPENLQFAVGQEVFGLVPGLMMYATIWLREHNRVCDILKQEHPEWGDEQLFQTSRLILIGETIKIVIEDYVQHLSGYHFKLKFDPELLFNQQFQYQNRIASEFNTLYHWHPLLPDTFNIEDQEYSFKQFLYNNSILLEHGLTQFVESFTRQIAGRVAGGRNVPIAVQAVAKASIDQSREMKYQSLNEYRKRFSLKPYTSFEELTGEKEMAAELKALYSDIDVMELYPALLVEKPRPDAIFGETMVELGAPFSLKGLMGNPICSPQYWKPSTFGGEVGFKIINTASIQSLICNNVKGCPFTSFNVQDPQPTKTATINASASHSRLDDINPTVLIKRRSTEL

urinary PGE2/TXB2 ratio = assay: Selective COX-2 and COX-1 blockage in mice, urinary PGE2/TXB2 ratio pre- and post-intervention; type: in vivo, mice (NOD, B6, B6.NODc1t)
Method: Urine was directly aliquoted and stored at −70° C. until assay. Enzyme immunoassay was used to particularly detect renal derived metabolites and the systemic derived metabolites. […] The EIA kits utilize a competitive binding assay between unlabeled compound from the specimen sample and a fixed quantity of peroxidase labeled compound for a limited number of binding sites on a compound specific antibody. Assays were performed in 96 well microtitre plates with 50 μL specimen. The unknown sample was bound to appropriate antiserum and conjugate and optical density read at 450 nm using a BIORAD 3550 UV microplate reader. Raw optical density data was converted to percent binding by plotting the percent binding B/Bo as a function of the log compound concentration. Concentration of the prostanoid compound was then directly calculated in pg/well. This concentration was then converted to pg/mL and subsequently to pg/mg urinary creatinine to adjust for urinary concentration, body size and age. The final ratios of PGE2/TXB2 or PGE2+6kPGF1α/TXB2 were then directly calculated.
Selective COX-2 and COX-1 blockage were analyzed in three groups of mice—NOD mice, B6 mice, and a congenic B6.NODc1t strain.
Eight age-matched female 6-8 week old mice of each strain (NOD, B6, and C1t) were divided into two groups.

Row | SMILES | COX-2 inhibition relative to COX-1 inhibition (COX-2) | increase in the urinary PGE2/TXB2 ratio (urinary PGE2/TXB2 ratio; 10 mg/kg/d i.p. daily for 14 days, all the three strains of mice (NOD, B6, B6.NODc1t), female 6-8 week old) | difference in urinary PGE2/TXB2 (Dunn's simultaneous multiple comparison test) (urinary PGE2/TXB2 ratio; NOD and B6.NODc1t group, COX-2 blocker 10 mg/kg/d i.p. 14 days, pre- vs post-intervention)
1 | COc1cc(C2Oc3cc([C@H]4Oc5cc(O)cc(O)c5C(=O)[C@@H]4O)ccc3OC2CO)ccc1O (stereo partly drawn) [silybinin] | significant COX-2 inhibition | – | –
2 | CS(=O)(=O)Nc1ccc([N+](=O)[O-])cc1OC1CCCCC1 [NS-398] | – | 3-7 fold | significant
